In the supplement of paper PMC10307832:

Experiments:
Assay in all cases: relative viability (nuclei count vs DMSO), 5 days (fraction); higher = more cells survive
[1] = compound: CC(C)(C)c1cc(NC(=O)Nc2ccc(-c3cn4c(n3)sc3cc(OCCN5CCOCC5)ccc34)cc2)no1 [Quizartinib] + CC(C)C[C@H](NC(=O)[C@H](Cc1ccccc1)NC(=O)c1cnccn1)B(O)O [Bortezomib] (partner 0.002 µM)
How it was run: (§1)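 Lung cancer cell lines in 1536-well plates got either a single drug or a fixed anchor-drug dose together with five library-drug doses (not always all listed) in √10 steps, by pin tool, on the day after seeding. Nuclei were counted after 5 days, and relative viability is the treated-to-vehicle ratio of nuclei counts. Values are medians of duplicate plates.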

[2] = compound: CC(C)(C)c1cc(NC(=O)Nc2ccc(-c3cn4c(n3)sc3cc(OCCN5CCOCC5)ccc34)cc2)no1 [Quizartinib] + CS(=O)(=O)CCNCc1ccc(-c2ccc3ncnc(Nc4ccc(OCc5cccc(F)c5)c(Cl)c4)c3c2)o1 [Lapatinib] (partner 2 µM)
How it was run: as §1

[3] = compound: CC(C)(C)c1cc(NC(=O)Nc2ccc(-c3cn4c(n3)sc3cc(OCCN5CCOCC5)ccc34)cc2)no1 [Quizartinib] + Cc1cc(Nc2cc(N3CCN(C)CC3)nc(Sc3ccc(NC(=O)C4CC4)cc3)n2)n[nH]1 [Tozasertib] (partner 0.1 µM)
How it was run: as §1

[4] = compound: CC(C)(C)c1cc(NC(=O)Nc2ccc(-c3cn4c(n3)sc3cc(OCCN5CCOCC5)ccc34)cc2)no1 [Quizartinib] + O=C(c1cc(Cc2n[nH]c(=O)c3ccccc23)ccc1F)N1CCN(C(=O)C2CC2)CC1 [Olaparib] (partner 8 µM)
How it was run: as §1

Cell Line | relative viability ([1]; first compound 0.001 µM) | relative viability ([1]; first compound 0.003162 µM) | relative viability ([1]; first compound 0.01 µM) | relative viability ([1]; first compound 0.03162 µM) | relative viability ([1]; first compound 0.1 µM) | relative viability ([2]; first compound 0.001 µM) | relative viability ([2]; first compound 0.003162 µM) | relative viability ([2]; first compound 0.01 µM) | relative viability ([2]; first compound 0.03162 µM) | relative viability ([2]; first compound 0.1 µM) | relative viability ([3]; first compound 0.001 µM) | relative viability ([3]; first compound 0.003162 µM) | relative viability ([3]; first compound 0.01 µM) | relative viability ([3]; first compound 0.03162 µM) | relative viability ([3]; first compound 0.1 µM) | relative viability ([4]; first compound 0.001 µM) | relative viability ([4]; first compound 0.003162 µM) | relative viability ([4]; first compound 0.01 µM) | relative viability ([4]; first compound 0.1 µM) | relative viability ([4]; first compound 0.03162 µM)
COR-L 105 | 0.64 | 0.632 | 0.634 | 0.632 | 0.617 | 0.362 | 0.388 | 0.376 | 0.409 | 0.352 | 0.344 | 0.343 | 0.42 | 0.36 | 0.347 | 0.705 | 0.795 | 0.65 | 0.863 | 
NCI-H2126 | 0.708 | 1.06 | 1.12 | 1.14 | 1.15 | 0.704 | 0.705 | 0.744 | 0.801 | 0.863 | 0.751 | 0.848 | 0.831 |  | 0.846 | 0.914 | 0.915 | 0.896 | 0.882 | 0.984
NCI-H322M | 1.15 | 1.26 | 1.27 | 1.24 | 1.15 | 0.565 | 0.502 | 0.605 | 0.628 | 0.673 | 0.393 | 0.468 | 0.505 | 0.511 | 0.558 | 0.769 | 0.721 | 0.739 | 0.825 | 0.678
NCI-H2009 | 0.423 | 0.879 | 0.948 | 1.02 | 0.926 | 0.141 | 0.865 | 0.884 | 0.695 | 0.93 | 0.692 | 0.695 | 0.628 | 0.653 | 0.506 | 0.658 | 0.64 | 0.628 | 0.597 | 0.54
UMC-11 | 0.242 | 0.852 | 0.875 | 0.769 | 0.653 | 0.499 | 0.945 | 1.14 | 0.889 | 1.02 |  | 0.194 | 0.204 | 0.223 | 0.222 | 0.365 | 0.349 | 0.464 | 0.471 | 0.315
EPLC-272H | 0.778 | 0.836 | 0.818 | 0.69 | 0.75 | 0.681 | 1.07 | 0.834 | 0.923 | 1.34 | 0.226 | 0.208 | 0.246 | 0.33 | 0.297 | 0.946 | 0.635 | 0.861 | 0.434 | 0.658
